Results published in ChEMBL document CHEMBL2429792, “2D QSAR of heteroaryl-substituted propanolamines as antihypertensive agents” (2013).

Species: Rattus norvegicus
Assay: Antihypertensive activity in rat assessed as inhibition of isoproterenol-induced tachycardia
Format: functional

Question: Which log1/activity does the source give for N#Cc1ccccc1OCC(O)CNCCNC(=O)Cc1cccs1 (stereo unspecified) here?
Answer: 6.95

Question: How did the log1/activity turn out when O=C(NCCNCC(O)COc1cccc2c1OCCO2)c1ccc(O)cc1 (stereo unspecified) was run?
Answer: 6.41

Question: For COc1ccc2c(O)cc(CC(=O)NCCNCC(O)COc3ccccc3C#N)nc2c1 (stereo unspecified), which log1/activity is on record?
Answer: 6.65

Question: Which log1/activity does the source give for Cc1ccccc1OCC(O)CNCCNC(=O)c1ccco1 (stereo unspecified) here?
Answer: 5.38

Question: With COc1cc(CC(=O)NCCNCC(O)COc2ccccc2C#N)nc(-c2ccc(Cl)cc2)n1 (stereo unspecified) as the molecule, how does the log1/activity read?
Answer: 4.69

Question: NC(=O)c1ccccc1OCC(O)CNCCNC(=O)c1cccs1 (stereo unspecified) was tested. Which log1/activity did it give?
Answer: 4.78

Question: Which log1/activity does the source give for CNC(=O)Nc1ccc(C(=O)NCCNCC(O)COc2cccc3c2OCCO3)cc1 (stereo unspecified) here?
Answer: 7.34

Question: How did the log1/activity turn out when O=C(Cc1ccccc1)NCCNCC(O)COc1cccc2c1OCCO2 (stereo unspecified) was run?
Answer: 5.41

Question: How did the log1/activity turn out when Nc1ccc(C(=O)NCCNCC(O)COc2cccc3c2OCCO3)cc1 (stereo unspecified) was run?
Answer: 5.5

Question: With N#Cc1ccccc1OCC(O)CNCCNC(=O)Cc1c[nH]c2ccccc12 (stereo unspecified) as the molecule, how does the log1/activity read?
Answer: 6.44

Question: For O=C(NCCNCC(O)COc1ccccc1)c1cccs1 (stereo unspecified), which log1/activity is on record?
Answer: 5.92

Question: O=C(NCCNCC(O)COc1ccccc1)c1ccco1 (stereo unspecified) was tested. Which log1/activity did it give?
Answer: 5.48

Question: How did the log1/activity turn out when CC(=O)Nc1ccc(OCC(O)CNC(C)C)cc1 (stereo unspecified) [PRACTOLOL] was run?
Answer: 5.72

Question: Which log1/activity does the source give for CC(C)C(=O)NCCNCC(O)COc1cccc2sccc12 (stereo unspecified) here?
Answer: 5.82

Question: Which log1/activity does the source give for Cc1cc(C(=O)NCCNCC(O)COc2ccccc2C#N)[nH]n1 (stereo unspecified) here?
Answer: 4.78

Question: For N#Cc1ccccc1OCC(O)CNCCNC(=O)c1ccc2ccccc2n1 (stereo unspecified), which log1/activity is on record?
Answer: 4.59

Question: For CC(C)C(=O)NCCNCC(O)COc1cccc2[nH]ccc12 (stereo unspecified), which log1/activity is on record?
Answer: 7.2

Question: O=C(NCCNCC(O)COc1cccc2sccc12)Nc1ccccc1 (stereo unspecified) was tested. Which log1/activity did it give?
Answer: 4.88

Question: How did the log1/activity turn out when Cc1cccc(OCC(O)CNCCNC(=O)c2ccco2)c1 (stereo unspecified) was run?
Answer: 4.9

Question: For C=CCOc1ccccc1OCC(O)CNCCNC(=O)c1ccco1 (stereo unspecified), which log1/activity is on record?
Answer: 5.07

Question: For O=C(NCCNCC(O)COc1cccc2c1OCCC2=O)Nc1ccccc1 (stereo unspecified), which log1/activity is on record?
Answer: 4.83

Question: Which log1/activity does the source give for O=C(NCCNCC(O)COc1cccc2ccccc12)c1ccco1 (stereo unspecified) here?
Answer: 4.73

Question: How did the log1/activity turn out when N#Cc1ccccc1OCC(O)CNCCNC(=O)Cc1csc(-c2ccc(Cl)cc2)n1 (stereo unspecified) was run?
Answer: 4.89

Question: Which log1/activity does the source give for N#Cc1ccccc1OCC(O)CNCCNC(=O)c1ccco1 (stereo unspecified) here?
Answer: 4.73

Question: Which log1/activity does the source give for O=C(NCCNCC(O)COc1ccccc1O)C1CCCO1 (stereo unspecified) here?
Answer: 5.16

Question: Which log1/activity does the source give for O=C(NCCNCC(O)COc1ccccc1)c1ccncc1 (stereo unspecified) here?
Answer: 5.79

Question: With N#Cc1ccccc1OCC(O)CNCCNC(=O)c1cc2ccccc2[nH]1 (stereo unspecified) as the molecule, how does the log1/activity read?
Answer: 4.57

Question: For O=C(NCCNCC(O)COc1cccc2occc12)Nc1ccccc1 (stereo unspecified), which log1/activity is on record?
Answer: 5.56

Question: Which log1/activity does the source give for O=C(NCCNCC(O)COc1cccc2c1OCCO2)Nc1ccccc1 (stereo unspecified) here?
Answer: 4.58

Question: With O=C(NCCNCC(O)COc1ccccc1I)c1ccco1 (stereo unspecified) as the molecule, how does the log1/activity read?
Answer: 5.27

Question: CC(=O)c1ccc(C(=O)NCCNCC(O)COc2cccc3c2OCCO3)cc1 (stereo unspecified) was tested. Which log1/activity did it give?
Answer: 6.31

Question: How did the log1/activity turn out when CC(C)C(=O)NCCNCC(O)COc1cccc2nsnc12 (stereo unspecified) was run?
Answer: 4.52

Question: How did the log1/activity turn out when CC(C)NCC(O)COc1cccc2ccccc12 (stereo unspecified) [PROPRANOLOL] was run?
Answer: 6.11

Question: Which log1/activity does the source give for CC(C)C(=O)NCCNCC(O)COc1nccs1 (stereo unspecified) here?
Answer: 5.91

Question: How did the log1/activity turn out when CC(C)C(=O)NCCNCC(O)COc1nsnc1N1CCOCC1 (stereo unspecified) was run?
Answer: 6.34

Question: How did the log1/activity turn out when O=C(NCCNCC(O)COc1ccccc1)c1cc2ccccc2[nH]1 (stereo unspecified) was run?
Answer: 4.54
